Results published in PubChem BioAssay (NCI).
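Briefly, cells in 96-well plates were exposed to five compound concentrations for 48 h, and endpoints were estimated by linear interpolation. GI50 is the concentration that inhibits growth by half. Definition used: TGI = concentration required for complete inhibition of growth.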

What was measured:
Test in all cases: DTP human tumour cell line panel, 48 h
[1] = system: OVCAR-3 ovarian
[2] = system: SW-620 colon
[3] = system: T-47D breast
[4] = system: NCI-H226 lung
[5] = system: CAKI-1 renal
[6] = system: NCI-H460 lung
[7] = system: 786-0 renal
[8] = system: SNB-75 CNS
[9] = system: COLO 205 colon
[10] = system: EKVX NSCLC

Compound | GI50 [1] [µM] | TGI [1] [µM] | GI50 [2] [µM] | TGI [2] [µM] | GI50 [3] [µM] | TGI [3] [µM] | GI50 [4] [µM] | TGI [4] [µM] | GI50 [5] [µM] | TGI [5] [µM] | GI50 [6] [µM] | TGI [6] [µM] | GI50 [7] [µM] | TGI [7] [µM] | GI50 [8] [µM] | TGI [8] [µM] | GI50 [9] [µM] | TGI [9] [µM] | GI50 [10] [µM] | TGI [10] [µM]
COc1ccc(-c2c3c(N)nc(-c4ccncc4)nc3nc3c2c(C)nn3-c2ccccc2)cc1 | 3.89 | 16 | 4.36 | > 100 | 3.96 | > 100 | > 100 | > 100 | > 100 | > 100 | 3.3 | > 100 | 7.12 | > 100 | 3.62 | 28.4 | 6.12 | > 100 |  | 
CCCCC(CC)CN=C(N)NC(N)=NCCCCCCN=C(N)NC(N)=NCC(CC)CCCC (stereo not given) |  |  |  |  | 2.21 | 4.9 | 2.38 | 7.48 | 2.93 | 10.3 |  |  | 2.16 | 4.91 |  |  | 1.82 | 3.31 | 1.74 | 4.73
O=C1CC(c2ccc(O)cc2)C2(O1)C(=O)OC(C(O)CO)C2O (stereo not given) |  | > 100 |  | > 100 |  | > 100 |  | > 100 |  | > 100 |  |  |  | > 100 |  | > 100 |  | > 100 |  | > 100
C[C@@H]1C[C@H]2CC[C@H](O2)[C@H](C)C(=O)O[C@@H](C)C[C@@H]2CC[C@@H](O2)[C@@H](C)C(=O)O[C@H](C)C[C@H]2CC[C@H](O2)[C@H](C)C(=O)O[C@@H](C)C[C@@H]2CC[C@@H](O2)[C@@H](C)C(=O)O1 |  | > 40.1 |  | > 100 |  | 0.857 |  | > 93.5 |  | 12.8 |  | > 100 |  | 41.8 |  |  |  | 0.33 |  | > 100
COc1ccc(/C=C2\CCCC3=C2N=C2SC(C)=NN2C3c2ccc(OC)c(OC)c2)cc1OC (stereo not given) | 4.62 | 74.9 | 6.79 | 53.8 | 4.57 | > 100 | 13.3 | 79.4 | 4.82 | > 100 | 23.8 | > 100 | 11 | > 100 | 13.7 | 64.2 | 5.24 | > 100 |  | 
Oc1cccc2ccc(N/N=C/c3cc(CN4CCCCC4)c(O)c4ncccc34)nc12 | 0.0858 | 1.74 | 0.0362 | 3.52 | 0.192 | 14.9 | 0.41 | 2.9 | 0.309 | 2.14 | 0.0386 | 1.67 | 0.0826 | 1.7 |  |  | 0.0651 | 1.36 | 0.299 | 14.7
OC(c1cc(-c2ccccc2)nc2ccc(Cl)cc12)C1CCCCN1 (stereo not given) | 2.15 | 5.15 | 1.94 | 3.69 | 2.51 | 5.47 | 2.19 | 4.64 | 2.1 | 5.9 | 1.89 | 3.61 | 1.96 | 4.57 | 1.83 | 5.74 |  |  | 2.36 | 6.27
COc1ccc(-c2csc(N(C(=O)N3CCN(c4cc5c(cc4F)c(=O)c(C(=O)O)cn5C4CC4)CC3)c3ccccc3)n2)cc1 |  |  | 4.37 | > 100 | 2.65 | 40.7 | 3.18 | 21.7 | 2.46 | 8.76 | 3.12 | > 100 | 1.15 | > 66 | 0.812 | > 25.9 | 3 | 9.22 | 3.3 | > 100
COc1ccc(-c2ccc(/C=N/n3c(COc4ccc(Cl)cc4Cl)nn(CN4CCOCC4)c3=S)o2)c([N+](=O)[O-])c1 | 14.6 | 37.9 |  |  | 38.6 | > 100 |  |  | 22.7 | 67.4 | 25.6 | > 100 | 32.5 | > 100 |  |  | 30.8 | > 100 | > 100 | > 100
CC#C[C@]1(O)CC[C@H]2[C@@H]3CCC4=CC(=O)CCC4=C3[C@@H](c3ccc4c(c3)OCO4)C[C@@]21C | 110 | 320 | 62.3 | > 1000 | 45.6 | 577 | 140 | 617 |  |  | 108 | 305 | 35.8 | 324 | 42.8 | 521 | 118 | 291 | 40.4 | 813
CCCCCCCCN=C(N)c1ccc(N2CCN(c3ccc(C(N)=NCCCCCCCC)cc3)CC2)cc1 | 0.931 | 3.2 | 1.76 | 16.8 | 1.63 | 13.5 | 1.6 | 5.44 | 1.28 | 3.68 | 1.63 | > 50 | 1.67 | 5.49 |  |  | 1.49 | 19.2 | 1.55 | 8.75
COc1ccc(OC)c(/C=C2\SC(=S)NC2=O)c1 | 36.7 | > 100 | 60.2 | > 100 | 18.6 | 56.7 |  |  | 21.9 | 61.4 | 32.6 | > 100 | 30.8 | > 100 | 29.3 | > 100 | 48.3 | > 100 | 14.2 | 42.1
O=[N+]([O-])C1C2C=CC(C2)[C@H]1c1ccco1 (stereo not given in full) |  | > 100 |  | > 100 |  |  |  | > 100 |  | > 100 |  | > 100 |  | > 100 |  | > 100 |  | > 100 |  | > 100
COc1ccc(-c2n/c(=C\c3c(O)[nH]c4ccc(OC)cc34)cc3c2=Nc2ccccc2-3)cc1 |  |  | 2.4 | 6.9 | 11.8 | 40.5 |  |  | 8.32 | 45 |  |  | 1.92 | 3.37 | 1.55 | 2.99 | 10.7 | 56.8 | 21.2 | 72.9
CC1C=C(OC(=O)c2ccccc2)C(=O)C(n2cc(F)c(=O)[nH]c2=O)O1 (stereo not given) |  | > 100 |  | > 100 |  |  |  | > 100 |  | > 100 |  | > 100 |  | > 100 |  | > 100 |  | > 100 |  | > 100
